For three molecules, inhibition and IC50 results are on record in patent US20260234157A1, “COMPOUND AND METHOD FOR TARGETED DEGRADATION OF ANDROGEN RECEPTOR” (Gan & Lee Pharmaceuticals Co., Ltd., priority 2023, published 2026).

Structures are written as SMILES. Changes are numbered by the printed parent chain. pIC50: −log10 of the molar value.

One assay addresses T1, AR protein (Homo sapiens, UniProt P10275, T878A).
T1 construct: degradation activity of the compounds disclosed in the present disclosure on AR protein in LNCaP cells; host or cells: LNCaP FGC
T1 sequence (P10275 1-920 T878A): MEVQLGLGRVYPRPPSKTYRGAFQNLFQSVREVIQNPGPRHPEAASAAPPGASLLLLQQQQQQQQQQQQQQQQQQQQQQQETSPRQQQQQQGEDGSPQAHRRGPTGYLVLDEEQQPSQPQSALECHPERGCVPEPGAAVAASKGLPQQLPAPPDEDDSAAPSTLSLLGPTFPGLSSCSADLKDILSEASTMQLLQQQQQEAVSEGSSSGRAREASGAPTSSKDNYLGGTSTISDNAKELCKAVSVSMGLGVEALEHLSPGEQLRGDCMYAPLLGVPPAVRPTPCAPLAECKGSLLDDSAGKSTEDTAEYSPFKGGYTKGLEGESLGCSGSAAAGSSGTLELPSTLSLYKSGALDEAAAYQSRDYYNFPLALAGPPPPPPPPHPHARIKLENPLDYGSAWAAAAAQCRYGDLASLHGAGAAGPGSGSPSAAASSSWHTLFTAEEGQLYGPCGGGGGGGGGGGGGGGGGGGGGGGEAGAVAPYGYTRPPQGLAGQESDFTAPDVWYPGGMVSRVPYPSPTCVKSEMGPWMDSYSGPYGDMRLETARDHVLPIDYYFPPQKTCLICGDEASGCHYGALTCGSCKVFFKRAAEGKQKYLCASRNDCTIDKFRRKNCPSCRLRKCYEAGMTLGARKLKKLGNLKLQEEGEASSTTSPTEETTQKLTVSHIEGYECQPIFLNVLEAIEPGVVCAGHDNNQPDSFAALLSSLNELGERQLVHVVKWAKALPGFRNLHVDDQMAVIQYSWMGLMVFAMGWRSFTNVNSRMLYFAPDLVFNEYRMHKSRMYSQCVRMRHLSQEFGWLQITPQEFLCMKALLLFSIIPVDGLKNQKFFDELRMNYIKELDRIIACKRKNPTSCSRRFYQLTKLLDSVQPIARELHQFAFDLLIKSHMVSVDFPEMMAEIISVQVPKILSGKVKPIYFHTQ
Description: Degradation of AR protein in LNCaP cells (Western blot). As to conditions: LNCaP cells, compound 10 nM, 8 hours, Western blot grayscale, GAPDH internal reference; read-out: Degradation rates of the AR protein in LNCaP cells, 10 nM (%). The format is cell-based. Summed up: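 Percent AR degradation was derived from GAPDH-normalised Western blot band intensities (infrared detection) in LNCaP lysates.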
On the technique in general: Immunoblotting shows a protein as a band on a membrane.
For the molecule `N#Cc1ccc(O[C@H]2CC[C@H](NC(=O)c3ccc(N4CC5(CC(N6CCC7(CC6)COc6cc8c(cc67)C(=O)N(C6CCC(=O)NC6=O)C8=O)C5)C4)nn3)CC2)cc1Cl` (stereo partly drawn) [Compound 50], the inhibition at 0.01 µM amounted to 66%.

The assay is the same for the next values; noted with them: LNCaP cells, compound 100 nM, 8 hours, Western blot grayscale, GAPDH internal reference; read-out: Degradation rates of the AR protein in LNCaP cells, 100 nM (%).
As for `N#Cc1ccc(O[C@H]2CC[C@H](NC(=O)c3ccc(N4CC5(CC(N6CCC7(CC6)COc6cc8c(cc67)C(=O)N(C6CCC(=O)NC6=O)C8=O)C5)C4)nn3)CC2)cc1Cl` (stereo partly drawn) [Compound 50], the inhibition at 0.1 µM came out at 86%.

The assay is the same for the next values; noted with them: LNCaP, 8 h, read-out: Degradation rates of the AR protein in LNCaP cells, 10 nM (%).
Regarding `N#Cc1ccc(O[C@H]2CC[C@H](NC(=O)c3ccc(N4CCC(N5CCC6(CC5)COc5cc7c(cc56)C(=O)N(C5CCC(=O)NC5=O)C7=O)CC4)nn3)CC2)cc1Cl` (stereo partly drawn) [Compound 48], the inhibition at 0.01 µM came out at 73%.

Consider `N#Cc1ccc(O[C@H]2CC[C@H](NC(=O)c3ccc(N4CC(N5CCC6(CC5)COc5cc7c(cc56)C(=O)N(C5CCC(=O)NC5=O)C7=O)C4)nn3)CC2)cc1Cl` (stereo partly drawn) [Compound 49], for which the inhibition at 0.01 µM turned out to be 24%.

Still in this assay, the particulars now being: LNCaP, 8 h, read-out: Degradation rates of the AR protein in LNCaP cells, 100 nM (%).
As for `N#Cc1ccc(O[C@H]2CC[C@H](NC(=O)c3ccc(N4CCC(N5CCC6(CC5)COc5cc7c(cc56)C(=O)N(C5CCC(=O)NC5=O)C7=O)CC4)nn3)CC2)cc1Cl` (stereo partly drawn) [Compound 48], the inhibition at 0.1 µM was 91%.

`N#Cc1ccc(O[C@H]2CC[C@H](NC(=O)c3ccc(N4CC(N5CCC6(CC5)COc5cc7c(cc56)C(=O)N(C5CCC(=O)NC5=O)C7=O)C4)nn3)CC2)cc1Cl` (stereo partly drawn) [Compound 49]: the inhibition at 0.1 µM was 36%.

Another assay addresses T2, AR protein (Homo sapiens, UniProt P10275).
T2 construct: degradation activity of the compounds disclosed in the present disclosure on AR protein in VCaP cells; host or cells: VCaP
T2 sequence (P10275 1-920): T1 sequence (P10275 1-920 T878A) with A878T
Description: Degradation of AR protein in VCaP cells (Western blot). The format is cell-based. As to conditions: compound at 10 nM, 8 hours, read-out: Degradation rate of the AR protein in VCaP cells, 10 nM (%). Summed up:
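Western blot readout: AR band grayscale normalised to GAPDH, used to derive degradation rate. Lysates came from VCaP cells exposed to compound for 8 h, with solvent controls run in parallel.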
Consider `N#Cc1ccc(O[C@H]2CC[C@H](NC(=O)c3ccc(N4CCC(N5CCC6(CC5)COc5cc7c(cc56)C(=O)N(C5CCC(=O)NC5=O)C7=O)CC4)nn3)CC2)cc1Cl` (stereo partly drawn) [Compound 48], for which the inhibition at 0.01 µM is 69%.

With `N#Cc1ccc(O[C@H]2CC[C@H](NC(=O)c3ccc(N4CC(N5CCC6(CC5)COc5cc7c(cc56)C(=O)N(C5CCC(=O)NC5=O)C7=O)C4)nn3)CC2)cc1Cl` (stereo partly drawn) [Compound 49], the inhibition at 0.01 µM worked out at 24%.

As to `N#Cc1ccc(O[C@H]2CC[C@H](NC(=O)c3ccc(N4CC5(CC(N6CCC7(CC6)COc6cc8c(cc67)C(=O)N(C6CCC(=O)NC6=O)C8=O)C5)C4)nn3)CC2)cc1Cl` (stereo partly drawn) [Compound 50], the inhibition at 0.01 µM is 77%.

The assay is the same for the next values; noted with them: compound at 100 nM, 8 hours, read-out: Degradation rate of the AR protein in VCaP cells, 100 nM (%).
As to `N#Cc1ccc(O[C@H]2CC[C@H](NC(=O)c3ccc(N4CCC(N5CCC6(CC5)COc5cc7c(cc56)C(=O)N(C5CCC(=O)NC5=O)C7=O)CC4)nn3)CC2)cc1Cl` (stereo partly drawn) [Compound 48], the inhibition at 0.1 µM was 82%.

`N#Cc1ccc(O[C@H]2CC[C@H](NC(=O)c3ccc(N4CC(N5CCC6(CC5)COc5cc7c(cc56)C(=O)N(C5CCC(=O)NC5=O)C7=O)C4)nn3)CC2)cc1Cl` (stereo partly drawn) [Compound 49]: the inhibition at 0.1 µM is 61%.

With `N#Cc1ccc(O[C@H]2CC[C@H](NC(=O)c3ccc(N4CC5(CC(N6CCC7(CC6)COc6cc8c(cc67)C(=O)N(C6CCC(=O)NC6=O)C8=O)C5)C4)nn3)CC2)cc1Cl` (stereo partly drawn) [Compound 50], the inhibition at 0.1 µM turned out to be 88%.

A further assay deals with LNCaP FGC cells. Description: Inhibition of proliferation of LNCaP cells (WST-8). As to conditions: Homo sapiens, LNCaP, 96 h, LNCaP FGC cells, 96 hours, WST-8 absorbance at 450 nm; read-out: IC50 for inhibiting the proliferation of LNCaP cells. The format is cell-based. The method, then:
The cells were cultured in a cell culture incubator with 5% CO2 at 37° C. overnight. […] On the sixth day, 96 well plates were taken out, and 20 μL of WST-8 (Beytime, C0040) reagent was added to each well.
In general terms: Tetrazolium dyes change colour on reduction, which living cells bring about.
On to `N#Cc1ccc(O[C@H]2CC[C@H](NC(=O)c3ccc(N4CC5(CC(N6CCC7(CC6)COc6cc8c(cc67)C(=O)N(C6CCC(=O)NC6=O)C8=O)C5)C4)nn3)CC2)cc1Cl` (stereo partly drawn) [Compound 50], for which the pIC50 was 5.92.

The same assay, now with this note: Homo sapiens, LNCaP, 96 h, read-out: IC50 for inhibiting the proliferation of LNCaP cells, LNCaP FGC cells, 96 hours, WST-8 absorbance at 450 nm.
On to `N#Cc1ccc(O[C@H]2CC[C@H](NC(=O)c3ccc(N4CCC(N5CCC6(CC5)COc5cc7c(cc56)C(=O)N(C5CCC(=O)NC5=O)C7=O)CC4)nn3)CC2)cc1Cl` (stereo partly drawn) [Compound 48], for which the pIC50 is 5.78.

In the case of `N#Cc1ccc(O[C@H]2CC[C@H](NC(=O)c3ccc(N4CC(N5CCC6(CC5)COc5cc7c(cc56)C(=O)N(C5CCC(=O)NC5=O)C7=O)C4)nn3)CC2)cc1Cl` (stereo partly drawn) [Compound 49], the pIC50 is 5.55.

A further assay has as its system VCaP cells. Briefly: Inhibition of proliferation of VCaP cells (WST-8). The format is cell-based. The following applies: Homo sapiens, VCaP, 168 h, read-out: IC50 for inhibiting the proliferation of VCaP cells. Summed up:
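Proliferation was read by WST-8 on day nine. Cells were VCaP FGC, seeded at 15000 cells per well in 10% FBS DMEM and kept at 37° C with 5% CO2.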
With `N#Cc1ccc(O[C@H]2CC[C@H](NC(=O)c3ccc(N4CCC(N5CCC6(CC5)COc5cc7c(cc56)C(=O)N(C5CCC(=O)NC5=O)C7=O)CC4)nn3)CC2)cc1Cl` (stereo partly drawn) [Compound 48], the pIC50 was 6.74.

For `N#Cc1ccc(O[C@H]2CC[C@H](NC(=O)c3ccc(N4CC(N5CCC6(CC5)COc5cc7c(cc56)C(=O)N(C5CCC(=O)NC5=O)C7=O)C4)nn3)CC2)cc1Cl` (stereo partly drawn) [Compound 49], the pIC50 was 5.40.

The assay is the same for the next values; noted with them: Homo sapiens; VCaP cells, 168 hours, WST-8 absorbance at 450 nm; read-out: IC50 for inhibiting the proliferation of VCaP cells.
As to `N#Cc1ccc(O[C@H]2CC[C@H](NC(=O)c3ccc(N4CC5(CC(N6CCC7(CC6)COc6cc8c(cc67)C(=O)N(C6CCC(=O)NC6=O)C8=O)C5)C4)nn3)CC2)cc1Cl` (stereo partly drawn) [Compound 50], the pIC50 is 7.55.
